# Source: patent US7521397B2, “Disubstituted pyrazolyl carboxanilides” (Bayer CropScience AG, priority 2002, dated 2009)
# Read-outs that look alike come from different tables or passages of the source.
# Columns and labels:
# Sphaerotheca fuliginea = experiment: Sphaerotheca test (cucumber)/protective; assay type: in vivo; details: Podosphaera fuliginea, topical, 168 h, protective spray, application rate 100 g/ha, evaluation 7 days after inoculation, read-out: Efficacy in %
# Description: (§1) [table] To produce a suitable preparation of active compound, 1 part by weight of active compound is mixed with the stated amounts of solvent and emulsifier, and the concentrate is diluted with water to the desired concentration. To test for protective activity, young plants are sprayed with the preparation of active compound at the stated application rate. After the spray coating has dried on, the plants are inoculated with an aqueous spore suspension of the Sphaerotheca fuliginea. The plants are then placed in a greenhouse at about 23° C. and a relative atmospheric humidity of about 70%. Evaluation is carried out 7 days after the inoculation. 0% means an efficacy which corresponds to that of the control, whereas an efficacy of 100% means that no infection is observed.
# [1] = logP determination by HPLC on reverse-phase column (EEC Directive 79/831 Annex V.A8); assay type: physicochemical; details: reverse-phase C18 HPLC column
# Description: The logP values given in the tables and Preparation Examples above are determined in accordance with EEC Directive 79/831 Annex V.A8 by HPLC (High Performance Liquid Chromatography) on a reverse-phase column (C 18). Temperature: 43° C. In the acidic range, the determination is carried out at pH 2.3 using the mobile phases 0.1% aqueous phosphoric acid and acetonitrile; linear gradient from 10% acetonitrile to 90% acetonitrile. Calibration is carried out using unbranched alkan-2-ones (of 3 to 16 carbon atoms) with known logP values (determination of the logP values by the retention times using linear interpolation between two successive alkanones).
# Podosphaera leucotricha = experiment: Podosphaera test (apple)/protective; assay type: in vivo; details: topical, 240 h, protective spray, application rate 100 g/ha, evaluation 10 days after inoculation, read-out: Efficacy in %
# Description: as §1, with “of the apple mildew pathogen Podosphaera leucotricha. The plants” for “of the Sphaerotheca fuliginea. The plants”, “carried out 10 days after” for “carried out 7 days after”
# Venturia inaequalis = experiment: Venturia test (apple)/protective; assay type: in vivo; details: topical, 240 h, protective spray, application rate 100 g/ha, evaluation 10 days after inoculation, read-out: Efficacy in %
# Description: as §1, with “conidia” for “spore”, “apple scab pathogen Venturia inaequalis and then remain in an incubation cabin at about 20° C. and 100% relative atmospheric humidity for 1 day.” for “Sphaerotheca fuliginea.”, “21°” for “23°”, “90%.” for “70%.”, “10” for “7”
# Alternaria solani = experiment: Alternaria test (tomato)/protective; assay type: in vivo; details: protective spray, application rate 750 g/ha, evaluation 7 days after inoculation
# Description: [table] To produce a suitable preparation of active compound, 1 part by weight of active compound is mixed with the stated amounts of solvent and emulsifier, and the concentrated is diluted with water to the desired concentration. To test for protective activity, young tomato plants are sprayed with the preparation of active compound at the stated application rate. 1 day after the treatment, the plants are inoculated with a spore suspension of Alternaria solani and are then kept at 100% relative atmospheric humidity and 20° C. for 24 h. The plants are then kept at 96% relative atmospheric humidity and a temperature of 20° C. Evaluation is carried out 7 days after the inoculation. 0% means an efficacy which corresponds to that of the control, whereas an efficacy of 100% means that no infection is observed.
# [2] = Table 1, 43° C., acidic range pH 2.3, read-out: logP
# [3] = pH 2.3, 43° C., preparation examples, read-out: logP (pH 2.3)
"chromatographic logP [1, 2]","chromatographic logP [1, 3]",Compound,pest or weed control at 100 g/ha (Sphaerotheca fuliginea) [%],pest or weed control at 100 g/ha (Podosphaera leucotricha) [%],pest or weed control at 100 g/ha (Venturia inaequalis) [%],Efficacy in % (Alternaria solani) [%]
3.29,–,Cn1cc(C(=O)Nc2cc(F)ccc2-c2ccc(F)c(Cl)c2)c(C(F)F)n1 [Example 10],100,100,100,–
3.07,–,Cn1cc(C(=O)Nc2ccc(F)cc2-c2ccc(F)c(Cl)c2)c(C(F)F)n1 [Example 12],100,100,100,–
–,3.1,"Cn1cc(C(=O)Nc2c(F)cccc2-c2ccc(Cl)c(Cl)c2)c(C(F)(F)F)n1 [Example 1, N-(3′,4′-dichloro-3-fluoro-1,1′-biphenyl-2-yl)-1-methyl-3-(trifluoromethyl)-1H-pyrazole-4-carboxamide]",100,100,100,100
3.26,–,Cn1cc(C(=O)Nc2ccc(F)cc2-c2ccc(F)c(Cl)c2)c(C(F)(F)F)n1 [Example 6],98,100,100,100
–,2.12,Cn1cc(C(=O)Nc2c(F)cccc2Br)c(C(F)(F)F)n1 [Example (IV-1)],–,–,–,–
3.75,–,Cn1cc(C(=O)Nc2cc(F)ccc2-c2ccc(Cl)c(Cl)c2)c(C(F)(F)F)n1 [Example 3],100,100,100,100
3.57,–,Cn1cc(C(=O)Nc2ccc(F)cc2-c2ccc(Cl)c(Cl)c2)c(C(F)(F)F)n1 [Example 5],100,100,100,100
3.55,–,Cn1cc(C(=O)Nc2cc(F)ccc2-c2ccc(Cl)c(Cl)c2)c(C(F)F)n1 [Example 9],94,83,99,–
3.33,–,Cn1cc(C(=O)Nc2ccc(F)cc2-c2ccc(Cl)c(Cl)c2)c(C(F)F)n1 [Example 11],100,100,100,–
–,3.62,"Nc1ccc(F)cc1-c1ccc(Cl)c(Cl)c1 [Example (III-2), 3′,4′-Dichloro-5-fluoro-1,1′-biphenyl-2-amine]",–,–,–,–
–,4.09,"Nc1c(F)cccc1-c1ccc(Cl)c(Cl)c1 [Example (III-1), 3′,4′-dichloro-3-fluoro-1,1′-biphenyl-2-amine]",–,–,–,–
3.1,–,Cn1cc(C(=O)Nc2c(F)cccc2-c2ccc(Cl)c(Cl)c2)c(C(F)F)n1 [Example 7],100,100,100,–
3.51,–,Cn1cc(C(=O)Nc2cc(F)ccc2-c2ccc(F)c(Cl)c2)c(C(F)(F)F)n1 [Example 4],99,100,100,100
–,3.04,Cn1cc(C(=O)Nc2c(F)cccc2-c2ccc(F)c(Cl)c2)c(C(F)(F)F)n1 [Example 2],–,–,–,100
